Assay results taken from ChEMBL document CHEMBL5385942, “C3-Symmetric ligands in drug design: An overview of the challenges and opportunities ahead” (Bioorg Med Chem Lett, 2024).
Several values for one entry are separate records, joined by “and”; a condition that tells them apart may be missing. Identical values can stand only once. Blank lines part the entries; values can stand above or below the compound they belong to. Activity calls are given as the source filed them. No cut-off for these calls is given here.

Legend:
Human alphaherpesvirus 1 = assay: Antiviral activity against HSV-1 infected in African green monkey Vero cells by plaque reduction assay; type: functional, organism-based; details: Human alphaherpesvirus 1, Vero
Staphylococcus aureus = assay: Antimicrobial activity against Staphylococcus aureus MTCC 96 assessed as zone of inhibition by […]; type: functional
Micrococcus luteus = assay: Antimicrobial activity against Micrococcus luteus ATCC 9341 assessed as zone of inhibition by […]; type: functional
Bacillus subtilis = assay: Antimicrobial activity against Bacillus subtilis MTCC 441 assessed as zone of inhibition by […]; type: functional
Quadruplex DNA [1] = assay: Stabilization of human G4 quadruplex telomeric22 DNA assessed as change in temperature at 10 uM by FRET assay; type: nucleic-acid assay
Quadruplex DNA [2] = assay: Stabilization of human G4 quadruplex telomeric22 DNA assessed as change in temperature at 1 uM by FRET assay; type: nucleic-acid assay
Quadruplex DNA [3] = assay: Stabilization of human G4 quadruplex telomeric22 DNA assessed as change in temperature at 5 uM by FRET assay; type: nucleic-acid assay
Quadruplex DNA [4] = assay: Stabilization of human G4 quadruplex telomeric22 DNA assessed as change in temperature at 2 uM by FRET assay; type: nucleic-acid assay
dsDNA = assay: Stabilization of human duplex DNA assessed as change in temperature at 1 uM by FRET assay; type: nucleic-acid assay

Compound: COc1ccc(CNc2nc(NCc3ccc(OC)c(OC)c3)nc(NCc3ccc(OC)c(OC)c3)n2)cc1OC
- EC50 (Human alphaherpesvirus 1): 0.98 µM

Compound: NC(=S)N1N=C(c2ccc(Oc3nc(Oc4ccc(C5=NN(C(N)=S)C(c6ccc(Cl)cc6)C5)cc4)nc(Oc4ccc(C5=NN(C(N)=S)C(c6ccc(Cl)cc6)C5)cc4)n3)cc2)CC1c1ccc(Cl)cc1 (stereo not drawn)
- inhibition zone (IZ) (Staphylococcus aureus): 11 mm
- inhibition zone (IZ) (Micrococcus luteus): 18 mm
- inhibition zone (IZ) (Bacillus subtilis): 10 mm

Compound: NC(=S)N1N=C(c2ccc(Oc3nc(Oc4ccc(C5=NN(C(N)=S)C(c6ccccc6)C5)cc4)nc(Oc4ccc(C5=NN(C(N)=S)C(c6ccccc6)C5)cc4)n3)cc2)CC1c1ccccc1 (stereo not drawn)
- inhibition zone (IZ) (Staphylococcus aureus): 13 mm
- inhibition zone (IZ) (Micrococcus luteus): 15 mm
- inhibition zone (IZ) (Bacillus subtilis): 11 mm

Compound: Cc1ccc(/C=C/C(=O)c2ccc(Oc3nc(Oc4ccc(C(=O)/C=C/c5ccc(C)cc5)cc4)nc(Oc4ccc(C(=O)/C=C/c5ccc(C)cc5)cc4)n3)cc2)cc1
- inhibition zone (IZ) (Staphylococcus aureus): 7 mm
- inhibition zone (IZ) (Micrococcus luteus): 11 mm
- inhibition zone (IZ) (Bacillus subtilis): 10 mm

Compound: O=C(/C=C/c1ccc(Cl)cc1)c1ccc(Oc2nc(Oc3ccc(C(=O)/C=C/c4ccc(Cl)cc4)cc3)nc(Oc3ccc(C(=O)/C=C/c4ccc(Cl)cc4)cc3)n2)cc1
- inhibition zone (IZ) (Micrococcus luteus): 8 mm
- inhibition zone (IZ) (Bacillus subtilis): 7 mm

Compound: CC(C)Nc1nc(NC(C)C)nc(NC(C)C)n1
- EC50 (Human alphaherpesvirus 1): 27.3 µM

Compound: CC(C)COc1nc(N)nc(OCC(C)C)n1
- EC50 (Human alphaherpesvirus 1): > 100 µM

Compound: NC(=S)N1N=C(c2ccc(Oc3nc(Oc4ccc(C5=NN(C(N)=S)C(c6ccc([N+](=O)[O-])cc6)C5)cc4)nc(Oc4ccc(C5=NN(C(N)=S)C(c6ccc([N+](=O)[O-])cc6)C5)cc4)n3)cc2)CC1c1ccc([N+](=O)[O-])cc1 (stereo not drawn)
- inhibition zone (IZ) (Bacillus subtilis): 10 mm

Compound: O=C(/C=C/c1cccc([N+](=O)[O-])c1)c1ccc(Oc2nc(Oc3ccc(C(=O)/C=C/c4cccc([N+](=O)[O-])c4)cc3)nc(Oc3ccc(C(=O)/C=C/c4cccc([N+](=O)[O-])c4)cc3)n2)cc1
- inhibition zone (IZ) (Micrococcus luteus): 5 mm
- inhibition zone (IZ) (Bacillus subtilis): 7 mm

Compound: O=C(/C=C/c1ccc(Cl)cc1Cl)c1ccc(Oc2nc(Oc3ccc(C(=O)/C=C/c4ccc(Cl)cc4Cl)cc3)nc(Oc3ccc(C(=O)/C=C/c4ccc(Cl)cc4Cl)cc3)n2)cc1
- inhibition zone (IZ) (Staphylococcus aureus): 10 mm and 7 mm
- inhibition zone (IZ) (Micrococcus luteus): 7 mm and 10 mm
- inhibition zone (IZ) (Bacillus subtilis): 7 mm and 8 mm

Compound: FC(F)CNc1nc(NCC(F)F)nc(NCC(F)F)n1
- EC50 (Human alphaherpesvirus 1): 24.4 µM

Compound: Nc1nc(OC(C(F)(F)F)C(F)(F)F)nc(OC(C(F)(F)F)C(F)(F)F)n1
- EC50 (Human alphaherpesvirus 1): > 100 µM

Next, values leading:

- ΔTm (Quadruplex DNA [1]): 4.9 °C
- Activity (Quadruplex DNA [2]): inactive
- ΔTm (Quadruplex DNA [3]): 2.3 °C
Compound: c1ccc2c(c1)c1cc(-c3cc(-c4ccc5c(c4)c4ccccc4n5CCN4CCCCC4)cc(-c4ccc5c(c4)c4ccccc4n5CCN4CCCCC4)c3)ccc1n2CCN1CCCCC1

- ΔTm (Quadruplex DNA [4]): 0 °C
- ΔTm (Quadruplex DNA [2]): 0 °C
- ΔTm (dsDNA): 0 °C
Compound: CCCOCCNCC(=O)Nc1ccc(-c2cn(Cc3cc(Cn4cc(-c5ccc(NC(=O)CNCCOCCC)cc5)nn4)cc(Cn4cc(-c5ccc(NC(=O)CNCCOCCC)cc5)nn4)c3)nn2)cc1

- ΔTm (Quadruplex DNA [4]): 11 °C
- ΔTm (Quadruplex DNA [2]): 4 °C
- ΔTm (dsDNA): 0 °C
Compound: CCCCCCNCCC(=O)Nc1ccc(-c2cn(Cc3cc(Cn4cc(-c5ccc(NC(=O)CCNCCCCCC)cc5)nn4)cc(Cn4cc(-c5ccc(NC(=O)CCNCCCCCC)cc5)nn4)c3)nn2)cc1

- ΔTm (Quadruplex DNA [4]): 1 °C
- ΔTm (Quadruplex DNA [2]): 0 °C
- ΔTm (dsDNA): 0 °C
Compound: CCNCC(=O)Nc1ccc(-c2cn(Cc3cc(Cn4cc(-c5ccc(NC(=O)CNCC)cc5)nn4)cc(Cn4cc(-c5ccc(NC(=O)CNCC)cc5)nn4)c3)nn2)cc1

- Activity (Quadruplex DNA [1]): inactive
- Activity (Quadruplex DNA [2]): inactive
- Activity (Quadruplex DNA [3]): inactive
Compound: c1ccc2c(c1)c1cc(-c3cc(-c4ccc5c(c4)c4ccccc4n5CCCN4CCOCC4)cc(-c4ccc5c(c4)c4ccccc4n5CCCN4CCOCC4)c3)ccc1n2CCCN1CCOCC1

- ΔTm (Quadruplex DNA [4]): 2 °C
- ΔTm (Quadruplex DNA [2]): 1 °C
- ΔTm (dsDNA): 0 °C
Compound: CCNCCCC(=O)Nc1ccc(-c2cn(Cc3cc(Cn4cc(-c5ccc(NC(=O)CCCNCC)cc5)nn4)cc(Cn4cc(-c5ccc(NC(=O)CCCNCC)cc5)nn4)c3)nn2)cc1

- ΔTm (Quadruplex DNA [4]): 1 °C
- ΔTm (Quadruplex DNA [2]): 1 °C
- ΔTm (dsDNA): 0 °C
Compound: CCCCCCNCCCC(=O)Nc1ccc(-c2cn(Cc3cc(Cn4cc(-c5ccc(NC(=O)CCCNCCCCCC)cc5)nn4)cc(Cn4cc(-c5ccc(NC(=O)CCCNCCCCCC)cc5)nn4)c3)nn2)cc1

- ΔTm (Quadruplex DNA [1]): 11.5 °C
- ΔTm (Quadruplex DNA [2]): 5.1 °C
- ΔTm (Quadruplex DNA [3]): 8.4 °C
Compound: CCN(CC)CCCn1c2ccccc2c2cc(-c3cc(-c4ccc5c(c4)c4ccccc4n5CCCN(CC)CC)cc(-c4ccc5c(c4)c4ccccc4n5CCCN(CC)CC)c3)ccc21

- ΔTm (Quadruplex DNA [4]): 0 °C
- ΔTm (Quadruplex DNA [2]): 0 °C
- ΔTm (dsDNA): 0 °C
Compound: CCCCCNCC(=O)Nc1ccc(-c2cn(Cc3cc(Cn4cc(-c5ccc(NC(=O)CNCCCCC)cc5)nn4)cc(Cn4cc(-c5ccc(NC(=O)CNCCCCC)cc5)nn4)c3)nn2)cc1

- EC50 (Human alphaherpesvirus 1): 13.2 µM
Compound: c1ccc(CNc2nc(NCc3ccccc3)nc(NCc3ccccc3)n2)cc1

- ΔTm (Quadruplex DNA [1]): 3.3 °C
- ΔTm (Quadruplex DNA [2]): 2.8 °C
- ΔTm (Quadruplex DNA [3]): 4.9 °C
Compound: CCN(CC)CCn1c2ccccc2c2cc(-c3cc(-c4ccc5c(c4)c4ccccc4n5CCN(CC)CC)cc(-c4ccc5c(c4)c4ccccc4n5CCN(CC)CC)c3)ccc21
